Reference: publication PMC4578337, “New depsidones and isoindolinones from the mangrove endophytic fungus Meyerozyma guilliermondii (HZ-Y2) isolated from the South China Sea” (Beilstein Journal of Organic Chemistry, 2015)

Tests used:
α-glucosidase [1] = target: T1, α-glucosidase (Saccharomyces cerevisiae, UniProt P53341); assay: kinetic analysis of the inhibition of α-glucosidase; type: biochemical; conditions: Figure 4
Protocol: (§1) Biological assays. The assays for α-glucosidase and MptpB inhibition inhibitory activities were carried out as described previously.

α-glucosidase [2] = target: T1, α-glucosidase; assay: α-glucosidase inhibitory activity assay; type: biochemical; conditions: qualitative statement
Protocol: as §1

T1 sequence (P53341 whole entry): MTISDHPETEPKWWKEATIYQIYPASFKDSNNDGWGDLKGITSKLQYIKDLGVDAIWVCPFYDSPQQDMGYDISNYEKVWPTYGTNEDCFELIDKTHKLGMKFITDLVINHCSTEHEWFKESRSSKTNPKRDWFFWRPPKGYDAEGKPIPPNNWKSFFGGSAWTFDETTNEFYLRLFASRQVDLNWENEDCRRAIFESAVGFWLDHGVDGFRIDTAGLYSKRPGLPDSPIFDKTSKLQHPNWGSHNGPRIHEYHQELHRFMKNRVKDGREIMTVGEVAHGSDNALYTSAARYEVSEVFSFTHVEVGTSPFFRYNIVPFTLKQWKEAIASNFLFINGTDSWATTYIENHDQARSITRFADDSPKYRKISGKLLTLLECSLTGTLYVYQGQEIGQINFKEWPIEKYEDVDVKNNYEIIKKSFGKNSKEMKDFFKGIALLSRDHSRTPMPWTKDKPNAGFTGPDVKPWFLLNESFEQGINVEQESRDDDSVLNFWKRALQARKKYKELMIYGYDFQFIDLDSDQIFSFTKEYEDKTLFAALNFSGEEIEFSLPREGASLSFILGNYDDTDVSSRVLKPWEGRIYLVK

SMILES	type of α-glucosidase inhibition (kinetic studies) (α-glucosidase [1])	α-glucosidase inhibitory activity (in words) (α-glucosidase [2])
Cc1cc(O)c(C)c2c1Oc1c(O)c(O)cc(C)c1C(=O)O2 [Compound 2, Botryorhodine F]	noncompetitive inhibitors	–
Cc1cc(O)cc2c1Oc1c(CO)c(O)cc(C)c1C(=O)O2 [Compound 6, botryorhodine D]	noncompetitive inhibitors	–
O=C(O)CCCCN1Cc2c(O)cc(O)cc2C1=O [Compound 7, Meyeroguilline A]	–	promising α-glucosidase inhibitory activity
O=C1NCc2c(O)cc(O)cc21 [Compound 8, 4,6-dihydroxy-2,3-dihydro-1H-isoindol-1-one]	–	moderate to weak activities
O=C1NC(=O)c2c(O)cc(O)cc21 [Compound 10, 4,6-dihydroxy-1H-isoindole-1,3(2H)-dione]	–	moderate to weak activities
